Measured values from ChEMBL document CHEMBL5321295, “Targeted Degradation of Alpha-Synuclein by Autophagosome-Anchoring Chimera Peptides” (J Med Chem, 2023).
The source made the active and inactive calls. The calls are words filed in the database; no cut-off is given here.

Tests used:
[1] = target: T1, Microtubule-associated protein 1 light chain 3 beta (Homo sapiens, UniProt Q9GZQ8); assay: Binding affinity to LC3B in HEK293T cells overexpressing alpha-synuclein (unknown origin) assessed as shift in denaturation at 50 uM incubated for 4 hrs followed by heating at 40 to 75 degreeC for 3 mins by CETSA assay; assay type: cell-based; conditions: time 243.0 min
[2] = target: T2, Alpha-synuclein (Homo sapiens, UniProt P37840); assay: Induction of EGFP-fused alpha-synuclein (unknown origin) degradation overexpressed in HEK293T cells co-expressing mCherry-fused LC3B assessed as puncta formation of alpha-synuclein at 50 uM incubated for 2 hrs by confocal laser scanning microscopy; assay type: cell-based
[3] = target: T2, Alpha-synuclein; assay: Binding affinity to biotinylated recombinant alpha-synuclein (unknown origin) assessed as dissociation constant by BLI assay
[4] = system: HEK-293T; assay: Cytotoxicity against wild-type HEK293T cells assessed as cell viability upto 200 uM incubated for 24 hrs by CCK8 assay; assay type: toxicity, cell-based; conditions: human
[5] = system: SH-SY5Y; assay: Cytotoxicity against wild-type human SH-SY5Y cells assessed as cell viability upto 200 uM incubated for 24 hrs by CCK8 assay; assay type: functional, cell-based
[6] = system: HEK-293T; assay: Downregulation of BANF1 expression in HEK293T cells at 100 uM incubated for 24 hrs by proteomic profiling analysis; assay type: functional, cell-based; conditions: Homo sapiens
[7] = system: HEK-293T; assay: Downregulation of PSMB7 expression in HEK293T cells at 100 uM incubated for 24 hrs by proteomic profiling analysis; assay type: functional, cell-based; conditions: Homo sapiens
[8] = system: HEK-293T; assay: Downregulation of DYNC1I2 expression in HEK293T cells at 100 uM incubated for 24 hrs by proteomic profiling analysis; assay type: functional, cell-based; conditions: Homo sapiens
[9] = system: HEK-293T; assay: Downregulation of SQSTM1 expression in HEK293T cells at 100 uM incubated for 24 hrs by proteomic profiling analysis; assay type: functional, cell-based; conditions: Homo sapiens
[10] = target: T1, Microtubule-associated protein 1 light chain 3 beta; assay: Induction of LC3B-mediated autophagy flux in HEK293T cells overexpressing alpha-synuclein (unknown origin) assessed as increase in ratio of LC3B-II to LC3B-I levels incubated for 4 hrs by immunoblot analysis; assay type: cell-based; conditions: dose <= 100.0 µM
[11] = target: T2, Alpha-synuclein; assay: Binding affinity to alpha-synuclein (unknown origin) overexpressed in HEK293T cells at 50 to 100 uM incubated for 4 hrs by co-IP assay; assay type: cell-based; conditions: dose 50-100 µM
[12] = Drug localization in HEK293T cells overexpressing mCherry-fused alpha-synuclein (unknown origin) assessed as colocalization of autophagosomes at 50 uM incubated for 2 hrs by MDC staining based confocal laser scanning microscopy; assay type: ADME, cell-based; conditions: human, hek-293t
[13] = Drug localization in HEK293T cells overexpressing mCherry-fused alpha-synuclein (unknown origin) assessed as colocalization of autophagosomes at 50 uM incubated for 2 hrs by LyTG staining based confocal laser scanning microscopy; assay type: ADME, cell-based; conditions: human, hek-293t
[14] = target: T2, Alpha-synuclein; assay: Induction of alpha-synuclein (unknown origin) degradation overexpressed in HEK293T cells at 50 uM incubated for 24 hrs in presence of MG132 by immunoblot analysis; assay type: cell-based
[15] = target: T1, Microtubule-associated protein 1 light chain 3 beta; assay: Induction of LC3B-mediated autophagy flux in HEK293T cells overexpressing alpha-synuclein (unknown origin) cotransfected with adenovirus-packaged plasmid encoding mCherry-EGFP-fused LC3B assessed as increase in density of lysosomes upto 100 uM incubated for 4 hrs by LyTR staining based confocal laser scanning microscopy; assay type: cell-based
[16] = system: SH-SY5Y; assay: Cytoprotective activity in human SH-SY5Y cells transfected with alpha-synuclein (unknown origin) assessed as decrease in ROS level at 100 uM measured after 24 hrs by confocal laser scanning microscopy/flow cytometry (reference value: 175.4 +/- 8.4 %); assay type: functional; parameters: scale not given: the % may be the effect or the level left
[17] = system: SH-SY5Y; assay: Cytoprotective activity in human SH-SY5Y cells transfected with alpha-synuclein (unknown origin) assessed as viable cells at 100 uM measured after 24 hrs by […] based flow cytometry (reference value: 28.5 %); assay type: functional; conditions: read-out: Activity
[18] = system: SH-SY5Y; assay: Cytoprotective activity in human SH-SY5Y cells transfected with alpha-synuclein (unknown origin) assessed as early apoptotic cells at 100 uM measured after 24 hrs by […] based flow cytometry (reference value: 0.17 %); assay type: functional
[19] = system: SH-SY5Y; assay: Cytoprotective activity in human SH-SY5Y cells transfected with alpha-synuclein (unknown origin) assessed as late apoptotic cells at 100 uM measured after 24 hrs by […] based flow cytometry (reference value: 56.6 %); assay type: functional
[20] = system: SH-SY5Y; assay: Cytoprotective activity in human SH-SY5Y cells transfected with alpha-synuclein (unknown origin) assessed as necrotic cells at 100 uM measured after 24 hrs by […] based flow cytometry (reference value: 14.8 %); assay type: functional
[21] = system: SH-SY5Y; assay: Cytoprotective activity in human SH-SY5Y cells assessed as decrease in CCCP-induced ROS level at 100 uM measured after 24 hrs by DCFH-DA staining based confocal laser scanning microscopy; assay type: functional, cell-based
[22] = system: Mus musculus; assay: Downregulation of total aggregated protein level in substantia nigra pars compacta of MPTP-treated C57BL/6 mouse at 50 mg/kg/day, iv treated for 5 days by ThS staining based analysis; assay type: functional, organism-based; conditions: time 5.0 day
[23] = system: Mus musculus; assay: Neuroprotective activity in MPTP-induced anxiety-like status in C57BL/6 mouse assessed as increase in zone transition number of mouse track at 50 mg/kg/day, iv treated for 5 days measured after 4 days by open field test; assay type: functional, organism-based; conditions: time 9.0 day
[24] = system: Mus musculus; assay: Neuroprotective activity in MPTP-induced anxiety-like status in C57BL/6 mouse assessed as increase in time spent in zone centers of mouse track at 50 mg/kg/day, iv treated for 5 days measured after 4 days by open field test; assay type: functional, organism-based; conditions: time 9.0 day
[25] = system: Mus musculus; assay: Neuroprotective activity in MPTP-induced anxiety-like status in C57BL/6 mouse assessed as increase in distance travelled in zone centers of mouse track at 50 mg/kg/day, iv treated for 5 days measured after 4 days by open field test; assay type: functional, organism-based; conditions: time 9.0 day
[26] = system: Mus musculus; assay: Neuroprotective activity in MPTP-induced cognitive impairment in C57BL/6 mouse assessed as decrease in escape latency in navigation trial phase at 50 mg/kg/day, iv treated for 5 days measured after 5 to 8 days days by morris water maze test; assay type: functional, organism-based; conditions: time 10-13 day
[27] = system: Mus musculus; assay: Neuroprotective activity in MPTP-induced cognitive impairment in C57BL/6 mouse assessed as decrease in mean speed in navigation trial phase at 50 mg/kg/day, iv treated for 5 days measured after 5 to 8 days days by morris water maze test; assay type: functional, organism-based; conditions: time 10-13 day
[28] = system: Mus musculus; assay: Neuroprotective activity in MPTP-induced cognitive impairment in C57BL/6 mouse assessed as increase in platform crossover number in probe trial phase at 50 mg/kg/day, iv treated for 5 days measured after 5 to 8 days days by morris water maze test; assay type: functional, organism-based; conditions: time 10-13 day
[29] = Toxicity in C57BL/6 mouse assessed as lethargy at 50 to 200 mg/kg/day treated for 5 days; assay type: organism-based; conditions: in vivo, 120 h, dose 50-200 mg/kg/day, time 5 day
[30] = system: Mus musculus; assay: Neuroprotective activity in MPTP-induced cognitive impairment in C57BL/6 mouse assessed as increase in distance travelled in target quadrant in probe trial phase at 50 mg/kg/day, iv treated for 5 days measured after 5 to 8 days days by morris water maze test; assay type: functional, organism-based; conditions: time 10-13 day
[31] = Toxicity in C57BL/6 mouse assessed as body weight loss at 50 to 200 mg/kg/day treated for 5 days; assay type: organism-based; conditions: in vivo, 120 h, dose 50-200 mg/kg/day, time 5 day
[32] = Toxicity in C57BL/6 mouse assessed as reduction in ALT level at 200 mg/kg/day treated for 5 days; assay type: organism-based; conditions: in vivo, 120 h, time 5 day
[33] = Toxicity in C57BL/6 mouse assessed as change in uric acid level at 50 to 200 mg/kg/day treated for 5 days; assay type: organism-based; conditions: in vivo, 120 h, dose 50-200 mg/kg/day, time 5 day

For `CC(C)C[C@H](NC(=O)[C@H](Cc1c[nH]cn1)NC(=O)[C@@H](NC(=O)[C@H](Cc1c[nH]c2ccccc12)NC(=O)[C@H](CC(=O)O)NC(=O)[C@H](CC(=O)O)NC(=O)[C@H](CC(=O)O)NC(=O)CNC(=O)CNC(=O)[C@H](CO)NC(=O)[C@H](CO)NC(=O)CNC(=O)[C@H](CO)NC(=O)CNC(=O)[C@H](CCCNC(=N)N)NC(=O)[C@@H](NC(=O)[C@H](CCCCN)NC(=O)[C@H](CO)NC(=O)CNC(=O)[C@@H](NC(=O)[C@H](Cc1ccc(O)cc1)NC(=O)[C@H](CC(C)C)NC(=O)[C@@H](NC(=O)CN)C(C)C)C(C)C)[C@H](C)O)[C@@H](C)O)C(=O)N[C@@H](CO)C(=O)N[C@@H](CO)C(=O)N[C@@H](Cc1ccc(O)cc1)C(=O)NCC(=O)N[C@@H](CCCNC(=N)N)C(=O)N[C@@H](CCCCN)C(=O)N[C@@H](CCCCN)C(=O)N[C@@H](CCCNC(=N)N)C(=O)N[C@@H](CCCNC(=N)N)C(=O)N[C@@H](CCC(N)=O)C(=O)N[C@@H](CCCNC(=N)N)C(=O)N[C@@H](CCCNC(=N)N)C(=O)N[C@@H](CCCNC(=N)N)C(=O)O`, the Activity [1] was “Active”, the Activity [2] was “Active” and the Kd [3] was 8.83 µM. For the same compound, the Activity [4] was “Non-Toxic”, the Activity [5] was “inactive” and the Activity [6] was “Active”. The Activity [7] was “Active”, the Activity [8] was “Active” and the Activity [9] was “Active”. For the same compound, the Activity [10] was “Dose-Dependent Effect”, the Activity [11] was “Active” and the Drug uptake [12] was “Active”. For the same compound, the Drug uptake [13] was “Active”, the Activity [14] was “Active” and the Activity [15] was “Active”. It also gave an Activity [16] of 127.7%, a viability at 100 µM [17] of 15.5% and an Activity [18] of 0.76%. For the same compound, the Activity [19] was 79.7%, the Activity [20] was 4.07% and the Activity [21] was “inactive”. For the same compound, the Activity [22] was “Active”, the Activity [23] was “Active” and the Activity [24] was “Active”. The Activity [25] was “Active”, the Activity [26] was “Active” and the Activity [27] was “Active”. The Activity [28] was “Active”, the Activity [29] was “Non-Toxic” and the Activity [30] was “Active”. For the same compound, the Activity [31] was “Non-Toxic”, the Activity [32] was “Toxic” and the Activity [33] was “Non-Toxic”.
